Values of other authors, collected in patent publication US20050063935A1, “Adsorbent for cytokine, method of adsorptive removal, and apparatus adsorptive removal” (priority 2002, published 2005).

Conditions: octanol-water system; free ligand compound before immobilization

| SMILES | log P |
| --- | --- |
| CCCCN [n-butylamine] | 0.97 |
| CCCCCCCCN [n-octylamine] | 2.90 |
